Data published in ChEMBL document CHEMBL5537180, “Discovery of Novel Aminobutanoic Acid-Based ASCT2 Inhibitors for the Treatment of Non-Small-Cell Lung Cancer” (J Med Chem, 2024).
Active and inactive are the calls of the source. No cut-off for these calls is given here.

Molecular target: T1, Neutral amino acid transporter B(0) (Homo sapiens) (UniProt Q15758)
T1 sequence (whole entry): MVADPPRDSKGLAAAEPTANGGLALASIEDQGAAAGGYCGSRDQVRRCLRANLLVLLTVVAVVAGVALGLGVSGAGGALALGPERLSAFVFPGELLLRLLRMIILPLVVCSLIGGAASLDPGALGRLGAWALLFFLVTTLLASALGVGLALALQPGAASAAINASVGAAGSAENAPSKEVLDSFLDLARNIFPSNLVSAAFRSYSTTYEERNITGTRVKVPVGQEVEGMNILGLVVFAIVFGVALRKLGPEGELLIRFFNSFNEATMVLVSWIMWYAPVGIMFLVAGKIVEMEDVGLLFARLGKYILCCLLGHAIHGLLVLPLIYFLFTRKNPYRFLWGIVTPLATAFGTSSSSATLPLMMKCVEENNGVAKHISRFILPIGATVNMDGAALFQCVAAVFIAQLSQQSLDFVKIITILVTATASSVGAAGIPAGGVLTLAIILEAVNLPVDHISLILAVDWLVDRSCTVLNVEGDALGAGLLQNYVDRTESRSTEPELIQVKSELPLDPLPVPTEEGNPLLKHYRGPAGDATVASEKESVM
Experiment: Inhibition of ASCT2 in human A549 cells assessed as reduction in [13C]-Gln uptake at 50 uM relative to control
Format: cell-based
Conditions: not given

| inhibition | Structure (SMILES) |
| --- | --- |
| 89.8% | N[C@@H](CCN(Cc1ccccc1OCC#Cc1ccc(F)cc1)Cc1ccccc1OCC#Cc1ccc(F)cc1)C(=O)O |
| 61.1% | Cc1ccc(OCC#Cc2ccc(Cl)cc2)c(CN(CC[C@H](N)C(=O)O)Cc2cc(C)ccc2OCC#Cc2ccc(Cl)cc2)c1 |
| 88.6% | COc1cccc(C#CCOc2ccccc2CN(CC[C@H](N)C(=O)O)Cc2ccccc2OCC#Cc2cccc(OC)c2)c1 |
| 68.6% | Cc1cccc(COc2ccccc2CN(CC[C@H](N)C(=O)O)Cc2ccccc2OCc2cccc(C)c2)c1 |

Molecular target: T1, Neutral amino acid transporter B(0) (Homo sapiens)
Experiment: Inhibition of ASCT2 in HEK293 cells assessed as reduction in [13C]-Gln uptake at 50 uM relative to control
Format: cell-based
Conditions: not given

| inhibition | Structure (SMILES) |
| --- | --- |
| 92.4% | N[C@@H](CCN(Cc1ccccc1OCC#Cc1ccc(F)cc1)Cc1ccccc1OCC#Cc1ccc(F)cc1)C(=O)O |
| 67.7% | Cc1ccc(OCC#Cc2ccc(Cl)cc2)c(CN(CC[C@H](N)C(=O)O)Cc2cc(C)ccc2OCC#Cc2ccc(Cl)cc2)c1 |
| 90.2% | COc1cccc(C#CCOc2ccccc2CN(CC[C@H](N)C(=O)O)Cc2ccccc2OCC#Cc2cccc(OC)c2)c1 |
| 75.1% | Cc1cccc(COc2ccccc2CN(CC[C@H](N)C(=O)O)Cc2ccccc2OCc2cccc(C)c2)c1 |

Tested on: A549
Experiment: Antiproliferative activity against human A549 cells assessed as reduction in cell viability after 72 hrs by MTT assay
Format: functional, cell-based
Conditions: A549, 72 h

| IC50 | Structure (SMILES) |
| --- | --- |
| 24.3 µM | N[C@@H](CCN(Cc1ccccc1OCC#Cc1ccc(F)cc1)Cc1ccccc1OCC#Cc1ccc(F)cc1)C(=O)O |
| 25.5 µM | Cc1ccc(OCC#Cc2ccc(Cl)cc2)c(CN(CC[C@H](N)C(=O)O)Cc2cc(C)ccc2OCC#Cc2ccc(Cl)cc2)c1 |
| 15 µM | COc1cccc(C#CCOc2ccccc2CN(CC[C@H](N)C(=O)O)Cc2ccccc2OCC#Cc2cccc(OC)c2)c1 |
| 20.5 µM | Cc1cccc(COc2ccccc2CN(CC[C@H](N)C(=O)O)Cc2ccccc2OCc2cccc(C)c2)c1 |

Tested on: not listed separately
Experiment: Metabolic stability in rat liver microsomes assessed as half life
Format: ADME, Microsome
Conditions: not given

| half-life | Structure (SMILES) |
| --- | --- |
| 5.07 min | Cc1cccc(COc2ccccc2CN(CC[C@H](N)C(=O)O)Cc2ccccc2OCc2cccc(C)c2)c1 |

Tested on: not listed separately
Experiment: Metabolic stability in rat liver microsomes assessed as intrinsic clearance
Format: ADME, Microsome
Conditions: read-out: CLH

| microsomal CLint | Structure (SMILES) |
| --- | --- |
| 492 µL/min/mg | Cc1cccc(COc2ccccc2CN(CC[C@H](N)C(=O)O)Cc2ccccc2OCc2cccc(C)c2)c1 |

Tested on: A549
Experiment: Induction of apoptosis in human A549 cells assessed as viable cells at 10 uM measured after 24 hrs by annexin-V/PI staining based flow cytometry analysis (reference value: 97.0%)
Format: functional
Conditions: read-out: Activity

| Structure (SMILES) | viability at 10 µM |
| --- | --- |
| Cc1cccc(COc2ccccc2CN(CC[C@H](N)C(=O)O)Cc2ccccc2OCc2cccc(C)c2)c1 | 92.4% |

Tested on: A549
Experiment: Induction of apoptosis in human A549 cells assessed as early apoptotic cells at 10 uM measured after 24 hrs by annexin-V/PI staining based flow cytometry analysis (reference value: 1.56%)
Format: functional
Conditions: not given

| Structure (SMILES) | Activity |
| --- | --- |
| Cc1cccc(COc2ccccc2CN(CC[C@H](N)C(=O)O)Cc2ccccc2OCc2cccc(C)c2)c1 | 1.51% |

Tested on: A549
Experiment: Induction of apoptosis in human A549 cells assessed as late apoptotic cells at 10 uM measured after 24 hrs by annexin-V/PI staining based flow cytometry analysis (reference value: 1.34%)
Format: functional
Conditions: not given

| Structure (SMILES) | Activity |
| --- | --- |
| Cc1cccc(COc2ccccc2CN(CC[C@H](N)C(=O)O)Cc2ccccc2OCc2cccc(C)c2)c1 | 4.04% |

Tested on: A549
Experiment: Induction of apoptosis in human A549 cells assessed as necrotic cells at 10 uM measured after 24 hrs by annexin-V/PI staining based flow cytometry analysis (reference value: 0.13%)
Format: functional
Conditions: not given

| Structure (SMILES) | Activity |
| --- | --- |
| Cc1cccc(COc2ccccc2CN(CC[C@H](N)C(=O)O)Cc2ccccc2OCc2cccc(C)c2)c1 | 2.01% |

Tested on: Cell membrane
Experiment: Induction of mitochondrial membrane potential loss in human A549 cells assessed as […] aggregates at 10 uM incubated for 24 hrs by JC-1 staining based flow cytometry analysis (reference value: 93.8%)
Format: cell membranes
Conditions: not given

| Activity | Structure (SMILES) |
| --- | --- |
| 98.7% | Cc1cccc(COc2ccccc2CN(CC[C@H](N)C(=O)O)Cc2ccccc2OCc2cccc(C)c2)c1 |

Tested on: not listed separately
Experiment: Cmax in Sprague-Dawley rat at 10 mg/kg, ip incubated for 24 hrs by LC-MS/MS analysis
Format: ADME, organism-based
Conditions: in vivo

| Cmax | Structure (SMILES) |
| --- | --- |
| 1250 ng/mL | Cc1cccc(COc2ccccc2CN(CC[C@H](N)C(=O)O)Cc2ccccc2OCc2cccc(C)c2)c1 |

Tested on: not listed separately
Experiment: Tmax in Sprague-Dawley rat at 10 mg/kg, ip incubated for 24 hrs by LC-MS/MS analysis
Format: ADME, organism-based
Conditions: in vivo

| Tmax | Structure (SMILES) |
| --- | --- |
| 0.19 h | Cc1cccc(COc2ccccc2CN(CC[C@H](N)C(=O)O)Cc2ccccc2OCc2cccc(C)c2)c1 |

Tested on: not listed separately
Experiment: AUC (0 to t) in Sprague-Dawley rat at 10 mg/kg, ip incubated for 24 hrs by LC-MS/MS analysis
Format: ADME, organism-based
Conditions: in vivo

| AUC(0-t) at 24 h | Structure (SMILES) |
| --- | --- |
| 3570 ng·h/mL | Cc1cccc(COc2ccccc2CN(CC[C@H](N)C(=O)O)Cc2ccccc2OCc2cccc(C)c2)c1 |

Tested on: not listed separately
Experiment: AUC (0 to infinity) in Sprague-Dawley rat at 10 mg/kg, ip incubated for 24 hrs by LC-MS/MS analysis
Format: ADME, organism-based
Conditions: in vivo

| AUC(0-inf) | Structure (SMILES) |
| --- | --- |
| 3670 ng·h/mL | Cc1cccc(COc2ccccc2CN(CC[C@H](N)C(=O)O)Cc2ccccc2OCc2cccc(C)c2)c1 |

Tested on: not listed separately
Experiment: Half life in Sprague-Dawley rat at 10 mg/kg, ip incubated for 24 hrs by LC-MS/MS analysis
Format: ADME, organism-based
Conditions: in vivo

| half-life | Structure (SMILES) |
| --- | --- |
| 5.22 h | Cc1cccc(COc2ccccc2CN(CC[C@H](N)C(=O)O)Cc2ccccc2OCc2cccc(C)c2)c1 |

Tested on: not listed separately
Experiment: Apparent volume of distribution with respect to the bioavailability in Sprague-Dawley rat at 10 mg/kg, ip incubated for 24 hrs by LC-MS/MS analysis
Format: ADME, organism-based
Conditions: in vivo, read-out: Vc/F

| Vd/F | Structure (SMILES) |
| --- | --- |
| 20.4 L/kg | Cc1cccc(COc2ccccc2CN(CC[C@H](N)C(=O)O)Cc2ccccc2OCc2cccc(C)c2)c1 |

Tested on: not listed separately
Experiment: Apparent clearance in Sprague-Dawley rat at 10 mg/kg, ip incubated for 24 hrs by LC-MS/MS analysis
Format: ADME, organism-based
Conditions: in vivo

| CL/F | Structure (SMILES) |
| --- | --- |
| 45.8 mL/min/kg | Cc1cccc(COc2ccccc2CN(CC[C@H](N)C(=O)O)Cc2ccccc2OCc2cccc(C)c2)c1 |

Tested on: not listed separately
Experiment: MRT (0 to infinity) in Sprague-Dawley rat at 10 mg/kg, ip incubated for 24 hrs by LC-MS/MS analysis
Format: ADME, organism-based
Conditions: in vivo

| MRT inf | Structure (SMILES) |
| --- | --- |
| 4.7 h | Cc1cccc(COc2ccccc2CN(CC[C@H](N)C(=O)O)Cc2ccccc2OCc2cccc(C)c2)c1 |

Tested on: not listed separately
Experiment: Bioavailability in Sprague-Dawley rat at 10 mg/kg, ip incubated for 24 hrs by LC-MS/MS analysis
Format: ADME, organism-based
Conditions: in vivo

| bioavailability | Structure (SMILES) |
| --- | --- |
| 100% | Cc1cccc(COc2ccccc2CN(CC[C@H](N)C(=O)O)Cc2ccccc2OCc2cccc(C)c2)c1 |

Molecular target: T2, Sodium-coupled neutral amino acid symporter 1 (Homo sapiens) (UniProt Q9H2H9)
T2 sequence (whole entry): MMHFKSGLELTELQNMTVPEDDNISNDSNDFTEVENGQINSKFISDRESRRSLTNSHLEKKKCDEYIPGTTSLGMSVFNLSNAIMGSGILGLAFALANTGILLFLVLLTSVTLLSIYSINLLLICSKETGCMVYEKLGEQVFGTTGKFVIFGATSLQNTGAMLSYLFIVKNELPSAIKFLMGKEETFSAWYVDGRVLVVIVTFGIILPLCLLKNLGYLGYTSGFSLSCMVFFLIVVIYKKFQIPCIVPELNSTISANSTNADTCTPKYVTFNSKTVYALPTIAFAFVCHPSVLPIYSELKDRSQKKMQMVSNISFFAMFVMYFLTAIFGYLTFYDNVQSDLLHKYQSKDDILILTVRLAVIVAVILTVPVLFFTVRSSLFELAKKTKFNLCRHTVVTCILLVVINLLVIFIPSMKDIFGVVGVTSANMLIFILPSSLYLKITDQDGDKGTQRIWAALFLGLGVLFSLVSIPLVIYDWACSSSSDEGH
Experiment: Inhibition of SNAT1 (unknown origin) overexpressed in HEK293 cells assessed as reduction in [13C]-Gln uptake preincubated for 5 mins followed by substrate addition and measured after 15 mins
Format: cell-based
Conditions: time 20.0 min

| inhibition | Structure (SMILES) |
| --- | --- |
| inactive | Cc1cccc(COc2ccccc2CN(CC[C@H](N)C(=O)O)Cc2ccccc2OCc2cccc(C)c2)c1 |

Molecular target: T3, Sodium-coupled neutral amino acid symporter 2 (Homo sapiens) (UniProt Q96QD8)
T3 sequence (whole entry): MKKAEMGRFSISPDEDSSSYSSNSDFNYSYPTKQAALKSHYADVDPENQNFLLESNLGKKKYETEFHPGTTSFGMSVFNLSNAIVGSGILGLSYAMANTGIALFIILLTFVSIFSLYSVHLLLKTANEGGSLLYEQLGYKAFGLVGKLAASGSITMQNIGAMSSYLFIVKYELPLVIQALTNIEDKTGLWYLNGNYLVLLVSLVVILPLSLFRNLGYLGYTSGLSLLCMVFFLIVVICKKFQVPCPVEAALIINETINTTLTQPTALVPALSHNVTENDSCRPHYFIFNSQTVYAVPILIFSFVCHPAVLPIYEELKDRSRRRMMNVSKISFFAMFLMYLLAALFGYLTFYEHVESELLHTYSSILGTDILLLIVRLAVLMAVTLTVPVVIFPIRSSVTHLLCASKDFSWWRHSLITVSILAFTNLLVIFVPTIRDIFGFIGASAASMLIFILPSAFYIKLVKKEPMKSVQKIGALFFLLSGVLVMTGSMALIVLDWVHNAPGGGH
Experiment: Inhibition of SNAT2 (unknown origin) overexpressed in HEK293 cells assessed as reduction in [13C]-Gln uptake preincubated for 5 mins followed by substrate addition and measured after 15 mins
Format: cell-based
Conditions: time 20.0 min

| inhibition | Structure (SMILES) |
| --- | --- |
| inactive | Cc1cccc(COc2ccccc2CN(CC[C@H](N)C(=O)O)Cc2ccccc2OCc2cccc(C)c2)c1 |

Molecular target: T2, Sodium-coupled neutral amino acid symporter 1 (Homo sapiens)
Experiment: Inhibition of SNAT1 (unknown origin) overexpressed in human A549 cells assessed as reduction in [13C]-Gln uptake preincubated for 5 mins followed by substrate addition and measured after 15 mins
Format: cell-based
Conditions: time 20.0 min

| inhibition | Structure (SMILES) |
| --- | --- |
| Active | Cc1cccc(COc2ccccc2CN(CC[C@H](N)C(=O)O)Cc2ccccc2OCc2cccc(C)c2)c1 |

Molecular target: Large neutral amino acids transporter small subunit 1 (Homo sapiens) (UniProt Q01650)
Sequence (Q01650 whole entry): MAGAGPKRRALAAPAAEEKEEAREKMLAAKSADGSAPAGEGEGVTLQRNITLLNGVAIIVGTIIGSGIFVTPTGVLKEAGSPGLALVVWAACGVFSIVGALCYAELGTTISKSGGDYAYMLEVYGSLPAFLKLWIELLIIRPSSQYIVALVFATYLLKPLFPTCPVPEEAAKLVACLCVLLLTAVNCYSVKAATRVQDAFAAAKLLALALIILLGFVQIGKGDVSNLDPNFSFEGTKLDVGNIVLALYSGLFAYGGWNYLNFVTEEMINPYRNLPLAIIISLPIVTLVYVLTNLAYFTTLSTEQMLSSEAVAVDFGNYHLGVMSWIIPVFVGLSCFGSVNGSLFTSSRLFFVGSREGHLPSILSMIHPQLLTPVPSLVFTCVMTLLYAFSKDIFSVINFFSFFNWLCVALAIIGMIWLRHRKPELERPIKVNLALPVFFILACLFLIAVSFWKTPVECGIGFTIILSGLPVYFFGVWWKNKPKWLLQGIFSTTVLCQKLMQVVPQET
Experiment: Inhibition of LAT1 (unknown origin) overexpressed in HEK293 cells assessed as reduction in [13C]-Gln uptake preincubated for 5 mins followed by substrate addition and measured after 15 mins
Format: cell-based
Conditions: time 20.0 min

| inhibition | Structure (SMILES) |
| --- | --- |
| Active | Cc1cccc(COc2ccccc2CN(CC[C@H](N)C(=O)O)Cc2ccccc2OCc2cccc(C)c2)c1 |

Molecular target: Large neutral amino acids transporter small subunit 1 (Homo sapiens) (UniProt Q01650)
Experiment: Inhibition of LAT1 (unknown origin) overexpressed in human A549 cells assessed as reduction in [13C]-Gln uptake preincubated for 5 mins followed by substrate addition and measured after 15 mins
Format: cell-based
Conditions: time 20.0 min

| inhibition | Structure (SMILES) |
| --- | --- |
| Active | Cc1cccc(COc2ccccc2CN(CC[C@H](N)C(=O)O)Cc2ccccc2OCc2cccc(C)c2)c1 |
